ChEMBL document CHEMBL4673200, “Hydride-induced Meisenheimer complex formation reflects activity of nitro aromatic anti-tuberculosis compounds” (RSC Med Chem, 2021)
Activity calls are given as the source filed them. No cut-off for these calls is given here.

What was measured:
[1] = system: Mycobacterium tuberculosis variant bovis BCG; test: Inhibition of Mycobacterium bovis BCG QcrB harboring CydAB deletion mutant assessed as decrease in ATP level at 0.01 to 10 uM incubated for 20 hrs by Bactiter-Glo microbial cell viability assay; conditions: dose 0.01-10 µM
[2] = system: Mycobacterium tuberculosis variant bovis BCG; test: Inhibition of Mycobacterium bovis BCG QcrB assessed as decrease in ATP level at 0.01 to 10 uM incubated for 20 hrs by Bactiter-Glo microbial cell viability assay; conditions: dose 0.01-10 µM
[3] = system: Mycobacterium tuberculosis variant bovis BCG; test: Inhibition of Mycobacterium bovis BCG QcrB harboring CydAB deletion mutant assessed as decrease in ATP level at 10 uM incubated for 20 hrs by Bactiter-Glo microbial cell viability assay
[4] = system: Mycobacterium tuberculosis variant bovis BCG; test: Inhibition of Mycobacterium bovis BCG QcrB assessed as decrease in ATP level at 10 uM incubated for 20 hrs by Bactiter-Glo microbial cell viability assay

Structure (SMILES) | inhibition [1] | inhibition [2] | inhibition [3] | inhibition [4]
CCc1nc2ccc(Cl)cn2c1C(=O)NCc1ccc(N2CCC(c3ccc(OC(F)(F)F)cc3)CC2)cc1 [TELACEBEC] | Active | Active |  | 
COc1nc2ccc(Br)cc2cc1[C@@H](c1ccccc1)[C@@](O)(CCN(C)C)c1cccc2ccccc12 | Active | Active |  | 
O=C(NCc1ccc(N2CCC(c3ccc(OC(F)(F)F)cc3)CC2)cc1)c1nc2cc(C(F)(F)F)cc([N+](=O)[O-])c2s1 |  |  | Active | Active
O=C(NCc1ccc(N2CCC(c3ccc(OC(F)(F)F)cc3)CC2)cc1)c1sc2c([N+](=O)[O-])cc(C(F)(F)F)cc2[n+]1[O-] |  |  | Active | Active
